Patent US20050238724A1, “Pharmaceutical composition containing lamotrigine particles of defined morphology” (Teva Pharmaceutical Industries Ltd., priority 2002, published 2005)

Assays:
[1] = Particle diameter by laser diffraction (Malvern Mastersizer); format: physicochemical
Procedure: The “particle diameter” refers to the equivalent spherical diameter as determined by laser light scattering method. Particle diameter of lamotrigine was determined by laser diffraction. We determined the diameter of lamotrigine particles using a Malvern™ Mastersizer laser diffraction instrument. Samples of lamotrigine were suspended in hexane containing a surfactant (0.07% dioctyl sulfosuccinate sodium salt). The suspensions were mixed and then sonicated for 15 seconds to thoroughly disperse the lamotrigine particles. The dispersion was then recirculated in the flow cell of the Malvern Mastersizer for two minutes before particle diameter measurements were taken.

[2] = Specific surface area by gas adsorption, multipoint BET (Coulter SA3100); format: physicochemical; conditions: micronized particles; degassing 70° C., 30 minutes; 10 points
Source text: Gas adsorption analysis is a preferred method for determining the surface area of a sample of lamotrigine for purposes of this invention since it provides a direct measurement of surface area. It is therefore considered to be more accurate than other methods such as electron microscopy and laser diffraction that rely upon a model to obtain a value for surface area (e.g. equivalent sphere model).
We measured specific particle surface area by gas adsorption using a Coulter™ SA3100 Series adsorption analyzer. The specific surface area of a sample of lamotrigine particles was calculated by the multipoint Brunauer, Emmet and Teller (BET) method. Brunauer, S., P. H. Emmett, E. Teller, J. Am. Chem. Soc., 1938, 60, 309-319. The calculations of the surface area of lamotrigine particles and its precise weight would yield specific surface area (usually expressed as square meters/gram). […] The volume of the manifold was measured with helium gas using a conventional technique. […] The instrument's software calculated the moles of adsorbed N2 (based upon inputted sample mass, manifold volume and sample tube void volume) for ten equilibrium pressures (Ps). […]
The specific surface area of the lamotrigine particles was measured with a Coulter SA 3100, using the multipoint BET technique. […] For the linearity, 10 points were measured, using high sensitivity.

[3] = initial particles before air jet milling

| diameter of all particles in the plurality ([1]; after micronization in air jet mill) | specific surface area [2] | particle diameter, 50% of the particles equal to or less than [1, 3] [μm] | particle diameter, about 80% of the particles equal to or less than [1, 3] [μm] | Structure (SMILES) |
| --- | --- | --- | --- | --- |
| less than 100 μm | 3.1-3.3 square meters per gram | – | – | Nc1nnc(-c2cccc(Cl)c2Cl)c(N)n1 [lamotrigine micronized particles, 3,5-diamino-6-(2,3-dichlorophenyl)-1,2,4-triazine] |
| – | – | ≤ 250 | ≤ 500 | Nc1nnc(-c2cccc(Cl)c2Cl)c(N)n1 [Lamotrigine, 3,5-diamino-6-(2,3-dichlorophenyl)-1,2,4-triazine] |
